Toxic doses and inconclusive results are not listed. Rule as the data show it: active = T/C of 150% or more; inactive = T/C below 125%.
Test system: L1210 leukemia ip in BDF1 mice, survival T/C
Experiment: NCI In Vivo Anticancer Drug Screen. Data for tumor model L1210 Leukemia (intraperitoneal) in B6D2F1 (BDF1) mice
Conditions: endpoint: mean survival time, higher = longer survival
Summary of the method: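 Mice bearing the transplanted tumor received compound or vehicle. Survival of the treated group was divided by that of the vehicle-treated control group to give the ratio.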

[1] = dose: 50.0 mg/kg/injection, schedule: Q01DX009 (ip), vehicle: saline with Tween-80
[2] = dose: 100.0 mg/kg/injection, schedule: Q01DX001 (ip), vehicle: saline
[3] = dose: 200.0 mg/kg/injection, schedule: Q01DX001 (ip), vehicle: saline
[4] = dose: 400.0 mg/kg/injection, schedule: Q01DX001 (ip), vehicle: saline
[5] = dose: 100.0 mg/kg/injection, schedule: Q01DX009 (ip), vehicle: saline with Tween-80
[6] = dose: 200.0 mg/kg/injection, schedule: Q01DX009 (ip), vehicle: saline with Tween-80
[7] = dose: 100.0 mg/kg/injection, schedule: Q04DX003 (ip), vehicle: saline with Tween-80
[8] = dose: 200.0 mg/kg/injection, schedule: Q04DX003 (ip), vehicle: saline with Tween-80
[9] = dose: 400.0 mg/kg/injection, schedule: Q04DX003 (ip), vehicle: saline with Tween-80
[10] = dose: 100.0 mg/kg/injection, schedule: Q04DX002 (ip), vehicle: saline with Tween-80
[11] = dose: 200.0 mg/kg/injection, schedule: Q04DX002 (ip), vehicle: saline with Tween-80

Measured: T/C

CCN(CC)Cc1cc(Nc2cc(C)nc(Nc3ccc(Cl)c(Cl)c3)n2)ccc1OC
inactive: dose: 12.5 mg/kg/injection, schedule: Q01DX009 (ip), vehicle: saline with Tween-80 98 % of control | dose: 12.5 mg/kg/injection, schedule: Q04DX003 (ip), vehicle: saline with Tween-80 98 % of control | dose: 25.0 mg/kg/injection, schedule: Q01DX009 (ip), vehicle: saline with Tween-80 105 % of control | dose: 25.0 mg/kg/injection, schedule: Q04DX003 (ip), vehicle: saline with Tween-80 100 % of control | [1] 110 % of control | dose: 50.0 mg/kg/injection, schedule: Q04DX003 (ip), vehicle: saline with Tween-80 101 % of control

N=c1ccn(O)cc1[N+](=O)[O-]
inactive: [2] 108 % of control | [3] 120 % of control | [4] 114 % of control

CNS(=O)(=O)c1ccc(NC(=O)CCl)cc1
inactive: [1] 104 % of control | dose: 100.0 mg/kg/injection, schedule: Q01DX001 (ip), vehicle: other 104 % of control | [5] 110 % of control | dose: 100.0 mg/kg/injection, schedule: Q04DX003 (ip), vehicle: other 101 % of control | dose: 200.0 mg/kg/injection, schedule: Q01DX001 (ip), vehicle: other 103 % of control | [6] 119 % of control | dose: 200.0 mg/kg/injection, schedule: Q04DX003 (ip), vehicle: other 98 % of control | dose: 400.0 mg/kg/injection, schedule: Q01DX001 (ip), vehicle: other 100 % of control

Brc1ccc(N2N=NC3CNCC32)cc1 (centres undefined)
inactive: [7] 92 % of control | [8] 105 % of control | [9] 94 % of control

COc1cc(OC)cc(C(=O)Cl)c1
inactive: [5] 100 % of control | [6] 103 % of control | dose: 400.0 mg/kg/injection, schedule: Q01DX009 (ip), vehicle: saline with Tween-80 86 % of control

CC(O)COCCOCCO (centres undefined)
inactive: dose: 100.0 mg/kg/injection, schedule: Q04DX003 (ip), vehicle: saline 96 % of control | dose: 200.0 mg/kg/injection, schedule: Q04DX003 (ip), vehicle: saline 99 % of control | dose: 400.0 mg/kg/injection, schedule: Q04DX003 (ip), vehicle: saline 94 % of control

Cc1ccc(-n2cnc3c(=O)[nH]cnc32)cc1
inactive: [2] 98 % of control | [3] 93 % of control | [4] 93 % of control

O=S(c1cc(Br)ccc1O)c1cc(Br)ccc1O
inactive: dose: 100.0 mg/kg/injection, schedule: Q01DX001 (ip), vehicle: carboxymethylcellulose (CMC) 98 % of control | dose: 200.0 mg/kg/injection, schedule: Q01DX001 (ip), vehicle: carboxymethylcellulose (CMC) 93 % of control | dose: 400.0 mg/kg/injection, schedule: Q01DX001 (ip), vehicle: carboxymethylcellulose (CMC) 90 % of control

CCCCCCCCSCCCCCCCCCCCSCCCCCCCC
inactive: dose: 100.0 mg/kg/injection, schedule: Q01DX001 (ip), vehicle: Klucel (hydroxypropylcellulose) (HPC) 102 % of control | dose: 200.0 mg/kg/injection, schedule: Q01DX001 (ip), vehicle: Klucel (hydroxypropylcellulose) (HPC) 92 % of control

CC/C=C(\C)C1(CCC)C(=O)NC(=O)NC1=O
inactive: dose: 75.0 mg/kg/injection, schedule: Q01DX001 (ip), vehicle: saline 102 % of control | dose: 150.0 mg/kg/injection, schedule: Q01DX001 (ip), vehicle: saline 107 % of control

COc1ccc(C(=O)NC(SC)C(N)=O)cc1 (centres undefined)
inactive: dose: 100.0 mg/kg/injection, schedule: Q04DX002 (ip), vehicle: Klucel (hydroxypropylcellulose) (HPC) 90 % of control | dose: 200.0 mg/kg/injection, schedule: Q04DX002 (ip), vehicle: Klucel (hydroxypropylcellulose) (HPC) 101 % of control | dose: 400.0 mg/kg/injection, schedule: Q04DX002 (ip), vehicle: Klucel (hydroxypropylcellulose) (HPC) 93 % of control

CSCCCNC(=O)NS(=O)(=O)c1ccc(C)cc1
inactive: [7] 97 % of control | [8] 100 % of control | [9] 97 % of control

c1ccc(C(c2ccccc2)[Si](c2ccccc2)(c2ccccc2)c2ccccc2)cc1
inactive: [10] 90 % of control | [11] 97 % of control

COc1ccc(OC)c(NC(=O)Nc2ccccc2C(F)(F)F)c1
inactive: dose: 100.0 mg/kg/injection, schedule: Q01DX009 (ip), vehicle: Klucel (hydroxypropylcellulose) (HPC) 102 % of control | dose: 200.0 mg/kg/injection, schedule: Q01DX009 (ip), vehicle: Klucel (hydroxypropylcellulose) (HPC) 89 % of control | dose: 400.0 mg/kg/injection, schedule: Q01DX009 (ip), vehicle: Klucel (hydroxypropylcellulose) (HPC) 95 % of control

COc1ccc(NC(=O)NO)cc1
inactive: dose: 50.0 mg/kg/injection, schedule: Q04DX002 (ip), vehicle: saline with Tween-80 108 % of control | [10] 101 % of control | [11] 108 % of control

C1=COC(/C=N/Nc2nnc(N/N=C/C3CCC=CO3)c3ccccc23)CC1 (centres undefined)
inactive: dose: 5.0 mg/kg/injection, schedule: Q01DX001 (ip), vehicle: saline 98 % of control | dose: 10.0 mg/kg/injection, schedule: Q01DX001 (ip), vehicle: saline 111 % of control | dose: 20.0 mg/kg/injection, schedule: Q01DX001 (ip), vehicle: saline 96 % of control | dose: 40.0 mg/kg/injection, schedule: Q01DX001 (ip), vehicle: saline 102 % of control
